Experimental data as given in patent publication US20250320213A1, “Nitrogen-Containing Heterocyclic Compounds” (Pfizer Inc., priority 2024, published 2025).

Biological target: T1, STAT6 (Homo sapiens, UniProt P42226)
T1 construct: stably transfected HaCaT keratinocyte cell line, which expresses NanoLuc luciferase reporter gene under the transcriptional control of the STAT6 responsive promoter; endogenous in cells; host or cells: HaCaT keratinocyte reporter cell line (stably transfected with a NanoLuc reporter)
T1 sequence (P42226 1-847): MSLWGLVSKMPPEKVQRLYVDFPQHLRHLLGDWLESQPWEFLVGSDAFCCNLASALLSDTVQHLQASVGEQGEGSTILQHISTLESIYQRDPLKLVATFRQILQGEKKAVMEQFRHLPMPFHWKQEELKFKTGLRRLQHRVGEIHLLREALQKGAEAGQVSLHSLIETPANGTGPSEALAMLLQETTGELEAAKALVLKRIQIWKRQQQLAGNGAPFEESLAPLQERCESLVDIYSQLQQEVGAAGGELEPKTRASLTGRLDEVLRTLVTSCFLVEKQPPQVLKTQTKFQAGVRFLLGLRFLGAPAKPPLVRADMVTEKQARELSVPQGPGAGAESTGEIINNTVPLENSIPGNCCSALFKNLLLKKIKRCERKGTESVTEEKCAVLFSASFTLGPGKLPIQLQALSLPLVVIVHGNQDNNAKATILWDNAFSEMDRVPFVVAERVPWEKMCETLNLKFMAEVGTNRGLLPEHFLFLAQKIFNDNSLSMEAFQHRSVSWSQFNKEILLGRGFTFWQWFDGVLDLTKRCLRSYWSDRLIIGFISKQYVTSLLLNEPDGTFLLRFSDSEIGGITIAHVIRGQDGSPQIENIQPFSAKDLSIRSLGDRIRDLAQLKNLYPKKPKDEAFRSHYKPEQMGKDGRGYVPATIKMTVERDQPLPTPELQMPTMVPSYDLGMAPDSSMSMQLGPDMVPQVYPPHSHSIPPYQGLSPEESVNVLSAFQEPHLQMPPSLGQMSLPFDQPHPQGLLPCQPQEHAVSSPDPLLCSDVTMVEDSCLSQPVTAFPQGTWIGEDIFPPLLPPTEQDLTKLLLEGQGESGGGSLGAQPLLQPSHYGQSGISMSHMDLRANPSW
Assay: STAT6 Reporter Luciferase Assay (IL-13 stimulated HaCaT keratinocyte NanoLuc reporter cells)
Assay type: cell-based
Settings: IL-13 stimulated HaCaT STAT6 NanoLuc reporter cells; read-out: Reporter EC50
Protocol: Pharmacological measurements of STAT6 transcriptional activity through the IL-13-IL-13 receptor/IL-4 receptor pathway were made with a stably transfected HaCaT keratinocyte cell line, which expresses NanoLuc luciferase reporter gene under the transcriptional control of the STAT6 responsive promoter for IL-13Ra2. The readout of the STAT6 activity utilized Promega Nano-Glo Luciferase assay kit.
The reporter cells were cultured in a growth media comprised of DMEM High Glucose, no calcium and no glutamine, 10% heat inactivated fetal bovine serum (HI FBS), 1% 100× Glutamax, and 100 U/mL Penicillin-Streptomycin (units of penicillin in 1 mL of streptomycin). Seven thousand cells were plated in 25 microliter (μL) per well in a 384-well, white bottom, tissue culture plate. Cells were cultured overnight at 37° C. The next day, test compounds (solubilized and serially diluted in DMSO, in an 11 point, 4-fold dilution series in duplicate) were spotted, 60 nanoliters (nL) per well, into a 384 well v-bottom polypropylene plate. Thirty μL per well of 37° C. dosing media (Dulbecco's modified eagle medium (DMEM) High Glucose, no calcium and no glutamine with 2% HI FBS) was added to the compound plate. Growth media was removed from the cell plate, and the cells were washed with DPBS. Twenty μL per well of compounds diluted in dosing media were transferred from the compound plate to the cell plate and the compounds were further diluted with an additional 15 μL of dosing media in the cell plate: the cell plate was incubated for two hours at 37° C. After two hours, STAT6 activity was stimulated with the addition of 5 μL per well of IL-13 (R&D Systems) in dosing media with a final concentration of 0.12 nM IL13. Cells were incubated at 37° C. for 4 hours to allow for reporter gene expression, then all media was removed from the plate. The cell plates were treated with assay buffer and Luciferase substrate from Nano-Glo Luciferase Assay Kit for 15 min and then measured for luminescence on an EnVision 2105 multilabel reader (PerkinElmer).

Structure (SMILES)	EC50
CC(C)n1nc(C(=O)NCc2ccc(NC(=O)N(C)C)cc2)c2c1CCN(c1ccc(C(=O)N3C[C@@H]4OC(=O)N[C@@H]4C3)cn1)C2 (racemic) [Example 290, rac-N-(4-(3,3-dimethylureido)benzyl)-1-isopropyl-5-(5-((3aR,6aS)-2-oxohexahydro-2H-pyrrolo[3,4-d]oxazole-5-carbonyl)pyridin-2-yl)-4,5,6,7-tetrahydro-1H-pyrazolo[4,3-c]pyridine-3-carboxamide]	1410 nM
CC(C)n1nc(C(=O)NCc2ccc(NC(=O)N3CCNCC3)cc2)c2c1C(C(F)(F)F)CN(c1ccc(C(=O)N(C)C)cc1)C2 (racemic) [Example 704, rac-(R)-5-(4-(dimethylcarbamoyl)phenyl)-1-isopropyl-N-(4-(piperazine-1-carboxamido)benzyl)-7-(trifluoromethyl)-4,5,6,7-tetrahydro-1H-pyrazolo[4,3-c]pyridine-3-carboxamide]	1 nM
COc1nc(N2CCc3c(c(C(=O)NCc4ccc(NC(=O)N(C)C)cc4)nn3C(C)C)C2)ccc1[C@]1(C)CNC(=O)C1 [Example 202, (R)-N-(4-(3,3-dimethylureido)benzyl)-1-isopropyl-5-(6-methoxy-5-(3-methyl-5-oxopyrrolidin-3-yl)pyridin-2-yl)-4,5,6,7-tetrahydro-1H-pyrazolo[4,3-c]pyridine-3-carboxamide]	8080 nM
CC(C)n1nc(C(=O)NCc2ccc(NC(=O)N(C)C)cc2)c2c1CCN(c1ccc(C(=O)N3CCc4cncnc4C3)cn1)C2 [Example 433, N-(4-(3,3-dimethylureido)benzyl)-1-isopropyl-5-(5-(5,6,7,8-tetrahydropyrido[3,4-d]pyrimidine-7-carbonyl)pyridin-2-yl)-4,5,6,7-tetrahydro-1H-pyrazolo[4,3-c]pyridine-3-carboxamide]	276 nM
CC(C)n1nc(C(=O)NCc2ccc(NC(=O)N3CC[C@@H](CN(C)C)C3)cc2)c2c1[C@@H](C)CN(c1ccc(C(=O)N(C)C)cc1)C2 [Example 736, (S)-N-(4-((S)-3-((dimethylamino)methyl)pyrrolidine-1-carboxamido)benzyl)-5-(4-(dimethylcarbamoyl)phenyl)-1-isopropyl-7-methyl-4,5,6,7-tetrahydro-1H-pyrazolo[4,3-c]pyridine-3-carboxamide]	1 nM
COCCN1CCC(CN(C)C(=O)c2ccc(N3Cc4c(C(=O)NCc5ccc(NC(=O)N(C)C)cc5)nn(C(C)C)c4[C@@H](C)C3)cc2)CC1 [Example 565, (S)-N-(4-(3,3-dimethylureido)benzyl)-1-isopropyl-5-(4-(((1-(2-methoxyethyl)piperidin-4-yl)methyl)(methyl)carbamoyl)phenyl)-7-methyl-4,5,6,7-tetrahydro-1H-pyrazolo[4,3-c]pyridine-3-carboxamide]	5 nM
CC(C)n1nc(C(=O)NCc2ccc(NC(=O)N3CCN(C)CC3)cc2)c2c1C(C(F)(F)F)CN(c1ccc(C(=O)N(C)C)cn1)C2 (single isomer, unassigned) [Example 693, rel-(R or S)-5-(5-(dimethylcarbamoyl)pyridin-2-yl)-1-isopropyl-N-(4-(4-methylpiperazine-1-carboxamido)benzyl)-7-(trifluoromethyl)-4,5,6,7-tetrahydro-1H-pyrazolo[4,3-c]pyridine-3-carboxamide]	16 nM
CC(C)n1nc(C(=O)NCc2ccc(NC(=O)N(C)C)cc2)c2c1CCN(c1ccc(C(=O)N3Cc4ccccc4[C@H]3C)cn1)C2 [Example 426, (R)-N-(4-(3,3-dimethylureido)benzyl)-1-isopropyl-5-(5-(1-methylisoindoline-2-carbonyl)pyridin-2-yl)-4,5,6,7-tetrahydro-1H-pyrazolo[4,3-c]pyridine-3-carboxamide]	13 nM
CC(C)n1nc(C(=O)NCc2ccc(NC(=O)N(C)C)cc2)c2c1CCN(c1ccc(C(=O)N3Cc4cnc(C5CC5)nc4C3)cn1)C2 [Example 370, 5-(5-(2-cyclopropyl-6,7-dihydro-5H-pyrrolo[3,4-d]pyrimidine-6-carbonyl)pyridin-2-yl)-N-(4-(3,3-dimethylureido)benzyl)-1-isopropyl-4,5,6,7-tetrahydro-1H-pyrazolo[4,3-c]pyridine-3-carboxamide]	11 nM
Cc1cc2c(cn1)CN(C(=O)c1ccc(N3CCc4c(c(C(=O)NCc5ccc(NC(=O)N(C)C)cc5)nn4C(C)C)C3)nc1)C2 [Example 440, N-(4-(3,3-dimethylureido)benzyl)-1-isopropyl-5-(5-(6-methyl-2,3-dihydro-1H-pyrrolo[3,4-c]pyridine-2-carbonyl)pyridin-2-yl)-4,5,6,7-tetrahydro-1H-pyrazolo[4,3-c]pyridine-3-carboxamide]	16 nM
COCC1(N)CCN(C(=O)Nc2ccc(CNC(=O)c3nn(C(C)C)c4c3CN(c3ccc(C(=O)N(C)C)cc3)C[C@@H]4C)cc2)C1 (single isomer, unassigned) [Example 673, (S)-N-(4-((R*)-3-amino-3-(methoxymethyl)pyrrolidine-1-carboxamido)benzyl)-5-(4-(dimethylcarbamoyl)phenyl)-1-isopropyl-7-methyl-4,5,6,7-tetrahydro-1H-pyrazolo[4,3-c]pyridine-3-carboxamide]	2 nM
CC(C)n1nc(C(=O)NCc2ccc(NC(=O)N(C)C)cc2)c2c1CCN(c1ccc(C(=O)N3CCCNC(=O)C3)cn1)C2 [Example 221, N-(4-(3,3-dimethylureido)benzyl)-1-isopropyl-5-(5-(3-oxo-1,4-diazepane-1-carbonyl)pyridin-2-yl)-4,5,6,7-tetrahydro-1H-pyrazolo[4,3-c]pyridine-3-carboxamide]	227 nM
CC(C)n1nc(C(=O)NCc2ccc(NC(=O)N(C)C)cc2)c2c1CCN(c1ccc(C(=O)N3CC(=O)N[C@H](C)C3)cn1)C2 [Example 325, (R)-N-(4-(3,3-dimethylureido)benzyl)-1-isopropyl-5-(5-(3-methyl-5-oxopiperazine-1-carbonyl)pyridin-2-yl)-4,5,6,7-tetrahydro-1H-pyrazolo[4,3-c]pyridine-3-carboxamide]	710 nM
CC(C)n1nc(C(=O)NCc2ccc(NC(=O)N3CCN(C)[C@H](C)C3)cc2)c2c1[C@@H](C)CN(c1ccc(C(=O)N(C)C)cc1)C2 [Example 743, (S)-5-(4-(dimethylcarbamoyl)phenyl)-N-(4-((R)-3,4-dimethylpiperazine-1-carboxamido)benzyl)-1-isopropyl-7-methyl-4,5,6,7-tetrahydro-1H-pyrazolo[4,3-c]pyridine-3-carboxamide]	1 nM
CC(C)n1nc(C(=O)NCc2ccc(NC(=O)N(C)C)cc2)c2c1CCN(c1ccc(C(=O)N3CCn4ncnc4C3)cn1)C2 [Example 367, N-(4-(3,3-dimethylureido)benzyl)-1-isopropyl-5-(5-(5,6,7,8-tetrahydro-[1,2,4]triazolo[1,5-a]pyrazine-7-carbonyl)pyridin-2-yl)-4,5,6,7-tetrahydro-1H-pyrazolo[4,3-c]pyridine-3-carboxamide]	72 nM

Same assay, conditions: STAT6 NanoLuc luciferase reporter, IL-13 stimulated HaCaT keratinocyte cells; read-out: Reporter EC50

Structure (SMILES)	EC50
CC(C)n1nc(C(=O)NCc2ccc(NC(=O)N3CCCC(N(C)C)C3)cc2)c2c1CCN(c1ccc(C(=O)N(C)C)cn1)C2 (stereo not shown) [Example 151, N-(4-(3-(dimethylamino)piperidine-1-carboxamido)benzyl)-5-(5-(dimethylcarbamoyl)pyridin-2-yl)-1-isopropyl-4,5,6,7-tetrahydro-1H-pyrazolo[4,3-c]pyridine-3-carboxamide]	9 nM
